Experimental data taken from ChEMBL document CHEMBL1201862, “PubChem BioAssay data set” (2004).
Activity calls are given as the source filed them.

Columns and labels:
Format in all cases: functional
[1] = target: Megakaryocyte-associated tyrosine-protein kinase (Homo sapiens, UniProt P42679);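 note: affinity measured as one member of a kinase panel (Navigating the Kinome) against MATK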
[2] = target: Dual specificity protein kinase CLK2 (Homo sapiens, UniProt P49760)
[3] = target: 5'-AMP-activated protein kinase catalytic subunit alpha-1 (Homo sapiens, UniProt Q13131)
[4] = target: Protein kinase C delta type (Homo sapiens, UniProt Q05655)
[5] = target: Serine/threonine-protein kinase PLK4 (Homo sapiens, UniProt O00444);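 note: PLK4 measured as one member of a kinome-wide kinase profiling panel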
[6] = target: Calcium/calmodulin-dependent protein kinase type II subunit gamma (Homo sapiens, UniProt Q13555)
[7] = target: Serine/threonine-protein kinase D3 (Homo sapiens, UniProt O94806);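 note: determined within a kinase panel screen, with PRKCN as the panel member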
[8] = target: Serine/threonine-protein kinase 17A (Homo sapiens, UniProt Q9UEE5)
[9] = target: Tyrosine-protein kinase Lck (Homo sapiens, UniProt P06239);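 note: lck was assayed as one member of a kinase panel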
[10] = target: Death-associated protein kinase 3 (Homo sapiens, UniProt O43293);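 note: measured as one member of a kinome-wide profiling panel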
SRSF protein kinase 1 = SRSF protein kinase 1 (Homo sapiens, UniProt Q96SB4);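 note: measured as one member of a kinome-wide kinase profiling panel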
[11] = target: Serine/threonine-protein kinase pim-1 (Homo sapiens, UniProt P11309)
Chain of Serine/threonine-protein kinase pim-1 (P11309 whole entry): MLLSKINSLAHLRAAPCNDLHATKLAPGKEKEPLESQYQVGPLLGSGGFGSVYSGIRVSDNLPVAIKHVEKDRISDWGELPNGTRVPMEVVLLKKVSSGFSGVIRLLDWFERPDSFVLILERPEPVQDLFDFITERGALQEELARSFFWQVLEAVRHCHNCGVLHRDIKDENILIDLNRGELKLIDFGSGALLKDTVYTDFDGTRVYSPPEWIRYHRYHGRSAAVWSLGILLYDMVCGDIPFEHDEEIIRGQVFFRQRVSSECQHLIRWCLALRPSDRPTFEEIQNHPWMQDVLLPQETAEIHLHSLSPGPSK

Aurora kinase A = Aurora kinase A (Homo sapiens, UniProt O14965);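 note: value from the Navigating the Kinome kinase panel profiling, panel entry STK6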
[12] = target: MAP kinase-activated protein kinase 5 (Homo sapiens, UniProt Q8IW41);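 note: measured as one member of a kinome panel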
[13] = target: Serine/threonine-protein kinase PAK 4 (Homo sapiens, UniProt O96013);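 note: value obtained within a kinome profiling panel in which PAK4 was one of the panel members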
[14] = target: Calcium/calmodulin-dependent protein kinase type II subunit delta (Homo sapiens, UniProt Q13557)
[15] = target: Mitogen-activated protein kinase 9 (Homo sapiens, UniProt P45984);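 note: value from a kinome panel profiling assay, MAPK9 panel entry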
[16] = target: Tyrosine-protein kinase ITK/TSK (Homo sapiens, UniProt Q08881);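 note: affinity for ITK measured as one member of a broad kinase panel profiling binding across the kinome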
[17] = target: Serine/threonine-protein kinase TAO1 (Homo sapiens, UniProt Q7L7X3)
[18] = target: Tyrosine-protein kinase Blk (Homo sapiens, UniProt P51451);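 note: obtained as one member of a kinome-wide kinase assay panel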
[19] = target: Homeodomain-interacting protein kinase 2 (Homo sapiens, UniProt Q9H2X6);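 note: measured within a kinome-wide kinase profiling panel, HIPK2 being one panel member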
[20] = target: MAP/microtubule affinity-regulating kinase 3 (Homo sapiens, UniProt P27448);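 note: MARK3 affinity measured as one member of a kinome panel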
[21] = target: High affinity nerve growth factor receptor (Homo sapiens, UniProt P04629);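 note: NTRK1 tested as one member of a kinome-wide profiling panel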
Insulin receptor = Insulin receptor (Homo sapiens, UniProt P06213);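 note: insulin receptor kinase tested as one member of a kinome-wide kinase panel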
[22] = target: Mitogen-activated protein kinase 13 (Homo sapiens, UniProt O15264)
[23] = target: Mitogen-activated protein kinase kinase kinase 20 (Homo sapiens, UniProt Q9NYL2)
[24] = target: Non-receptor tyrosine-protein kinase TYK2 (Homo sapiens, UniProt P29597)
[25] = target: Dual specificity tyrosine-phosphorylation-regulated kinase 3 (Homo sapiens, UniProt O43781);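 note: measured as one member of a broad kinase panel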
Chain of Dual specificity tyrosine-phosphorylation-regulated kinase 3 (O43781 whole entry): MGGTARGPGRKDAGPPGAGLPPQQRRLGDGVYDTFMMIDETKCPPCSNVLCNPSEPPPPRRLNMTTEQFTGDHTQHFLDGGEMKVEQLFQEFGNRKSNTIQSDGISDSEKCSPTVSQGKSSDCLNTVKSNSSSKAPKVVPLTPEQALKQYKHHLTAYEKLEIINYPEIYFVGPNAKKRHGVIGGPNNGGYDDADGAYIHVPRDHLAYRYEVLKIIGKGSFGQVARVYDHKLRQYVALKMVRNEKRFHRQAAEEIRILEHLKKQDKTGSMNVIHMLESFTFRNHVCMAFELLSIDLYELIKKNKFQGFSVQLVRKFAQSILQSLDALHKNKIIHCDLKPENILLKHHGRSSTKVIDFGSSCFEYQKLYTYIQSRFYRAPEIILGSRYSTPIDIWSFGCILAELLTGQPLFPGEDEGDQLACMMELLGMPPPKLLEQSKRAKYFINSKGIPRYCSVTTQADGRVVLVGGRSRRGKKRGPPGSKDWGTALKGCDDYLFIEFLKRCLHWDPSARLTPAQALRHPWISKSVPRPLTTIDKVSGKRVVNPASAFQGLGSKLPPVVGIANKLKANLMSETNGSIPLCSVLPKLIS

[26] = target: Receptor tyrosine-protein kinase erbB-2 (Homo sapiens, UniProt P04626); assay: Navigating the Kinome. Panel member name: ERBB2
[27] = target: Casein kinase I isoform delta (Homo sapiens, UniProt P48730);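 note: measured as one member (CSNK1D) of a kinome panel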
[28] = target: Tyrosine-protein kinase ABL1 (Homo sapiens, UniProt P00519)
Misshapen-like kinase 1 = Misshapen-like kinase 1 (Homo sapiens, UniProt Q8N4C8);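 note: kinome panel screen with MINK as the panel member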
[29] = target: Serine/threonine-protein kinase Nek4 (Homo sapiens, UniProt P51957)
[30] = target: Dual specificity tyrosine-phosphorylation-regulated kinase 4 (Homo sapiens, UniProt Q9NR20)
[31] = target: cAMP-dependent protein kinase catalytic subunit PRKX (Homo sapiens, UniProt P51817)
[32] = target: Protein-tyrosine kinase 6 (Homo sapiens, UniProt Q13882)
[33] = target: Maternal embryonic leucine zipper kinase (Homo sapiens, UniProt Q14680)
[34] = target: Interleukin-1 receptor-associated kinase 4 (Homo sapiens, UniProt Q9NWZ3)
Chain of Interleukin-1 receptor-associated kinase 4 (Q9NWZ3 whole entry): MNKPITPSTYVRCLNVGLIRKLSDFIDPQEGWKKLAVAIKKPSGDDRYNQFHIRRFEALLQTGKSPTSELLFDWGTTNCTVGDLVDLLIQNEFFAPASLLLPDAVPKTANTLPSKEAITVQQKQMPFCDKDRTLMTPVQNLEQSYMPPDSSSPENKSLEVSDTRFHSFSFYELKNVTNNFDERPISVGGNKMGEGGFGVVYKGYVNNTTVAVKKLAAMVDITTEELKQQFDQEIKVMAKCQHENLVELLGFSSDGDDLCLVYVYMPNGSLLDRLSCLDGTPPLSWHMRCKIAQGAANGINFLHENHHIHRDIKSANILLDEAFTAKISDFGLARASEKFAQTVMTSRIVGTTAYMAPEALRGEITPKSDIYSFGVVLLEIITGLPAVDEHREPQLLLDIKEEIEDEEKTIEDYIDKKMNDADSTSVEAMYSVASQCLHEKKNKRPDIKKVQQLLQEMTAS

[35] = target: Vascular endothelial growth factor receptor 3 (Homo sapiens, UniProt P35916);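 note: value from a kinome-wide profiling panel, with FLT4 as the panel member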
Chain of Vascular endothelial growth factor receptor 3 (P35916 whole entry): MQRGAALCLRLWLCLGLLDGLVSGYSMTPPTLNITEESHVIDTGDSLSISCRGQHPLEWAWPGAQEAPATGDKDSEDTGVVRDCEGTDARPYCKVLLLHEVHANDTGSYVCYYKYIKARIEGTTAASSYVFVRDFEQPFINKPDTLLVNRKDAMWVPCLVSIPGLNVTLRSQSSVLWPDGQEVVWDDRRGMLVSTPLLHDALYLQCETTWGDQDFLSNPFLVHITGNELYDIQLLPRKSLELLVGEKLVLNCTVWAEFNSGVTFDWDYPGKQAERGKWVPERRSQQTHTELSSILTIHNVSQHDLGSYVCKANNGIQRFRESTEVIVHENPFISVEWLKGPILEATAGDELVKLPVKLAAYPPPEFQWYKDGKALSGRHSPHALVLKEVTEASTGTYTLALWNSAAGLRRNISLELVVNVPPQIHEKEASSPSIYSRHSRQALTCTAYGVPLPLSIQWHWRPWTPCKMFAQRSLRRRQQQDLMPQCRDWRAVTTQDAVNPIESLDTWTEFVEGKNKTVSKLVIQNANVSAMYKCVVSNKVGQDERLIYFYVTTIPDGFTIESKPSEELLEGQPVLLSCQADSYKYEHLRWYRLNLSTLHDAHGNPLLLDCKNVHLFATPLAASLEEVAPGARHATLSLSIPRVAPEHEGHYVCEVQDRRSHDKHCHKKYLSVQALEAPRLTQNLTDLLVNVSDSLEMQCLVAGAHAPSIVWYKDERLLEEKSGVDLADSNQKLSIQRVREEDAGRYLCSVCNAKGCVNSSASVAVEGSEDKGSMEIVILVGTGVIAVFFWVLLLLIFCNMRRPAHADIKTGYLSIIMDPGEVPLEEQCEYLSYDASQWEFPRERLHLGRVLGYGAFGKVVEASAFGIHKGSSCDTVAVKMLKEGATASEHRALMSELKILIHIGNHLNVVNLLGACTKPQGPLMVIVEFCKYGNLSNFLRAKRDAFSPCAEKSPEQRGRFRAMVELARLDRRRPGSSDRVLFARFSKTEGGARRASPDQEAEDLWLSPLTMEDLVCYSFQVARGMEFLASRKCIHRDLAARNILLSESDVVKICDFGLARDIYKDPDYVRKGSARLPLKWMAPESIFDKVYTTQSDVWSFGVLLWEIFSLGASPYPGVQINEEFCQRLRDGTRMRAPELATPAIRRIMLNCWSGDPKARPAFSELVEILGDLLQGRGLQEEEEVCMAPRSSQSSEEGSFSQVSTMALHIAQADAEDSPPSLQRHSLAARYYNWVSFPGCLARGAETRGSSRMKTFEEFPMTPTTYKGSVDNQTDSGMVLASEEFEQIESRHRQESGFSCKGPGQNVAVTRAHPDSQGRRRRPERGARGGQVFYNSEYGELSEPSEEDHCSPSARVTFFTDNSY

[36] = target: Calcium/calmodulin-dependent protein kinase type 1 (Homo sapiens, UniProt Q14012)
[37] = target: Serine/threonine-protein kinase pim-2 (Homo sapiens, UniProt Q9P1W9);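 note: value comes from a broad kinase panel profiling study in which PIM2 was one of the panel members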
[38] = target: Serine/threonine-protein kinase Nek2 (Homo sapiens, UniProt P51955)
Chain of Serine/threonine-protein kinase Nek2 (P51955 whole entry): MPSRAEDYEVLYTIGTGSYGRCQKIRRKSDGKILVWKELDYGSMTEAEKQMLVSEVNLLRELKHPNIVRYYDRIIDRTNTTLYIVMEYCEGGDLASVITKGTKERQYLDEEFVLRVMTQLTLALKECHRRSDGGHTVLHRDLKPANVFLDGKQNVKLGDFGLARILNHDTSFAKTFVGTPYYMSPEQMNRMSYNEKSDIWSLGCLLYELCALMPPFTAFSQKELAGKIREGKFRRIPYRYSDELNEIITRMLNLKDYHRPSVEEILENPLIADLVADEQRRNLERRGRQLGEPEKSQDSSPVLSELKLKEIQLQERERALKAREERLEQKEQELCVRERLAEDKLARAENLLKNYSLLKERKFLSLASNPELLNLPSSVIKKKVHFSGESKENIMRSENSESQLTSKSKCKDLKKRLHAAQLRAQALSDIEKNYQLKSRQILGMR

[39] = target: Fibroblast growth factor receptor 3 (Homo sapiens, UniProt P22607)
[40] = target: Glycogen synthase kinase-3 beta (Homo sapiens, UniProt P49841);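 note: value comes from a broad kinome profiling panel, with GSK3B as the panel member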
Chain of Glycogen synthase kinase-3 beta (P49841 whole entry): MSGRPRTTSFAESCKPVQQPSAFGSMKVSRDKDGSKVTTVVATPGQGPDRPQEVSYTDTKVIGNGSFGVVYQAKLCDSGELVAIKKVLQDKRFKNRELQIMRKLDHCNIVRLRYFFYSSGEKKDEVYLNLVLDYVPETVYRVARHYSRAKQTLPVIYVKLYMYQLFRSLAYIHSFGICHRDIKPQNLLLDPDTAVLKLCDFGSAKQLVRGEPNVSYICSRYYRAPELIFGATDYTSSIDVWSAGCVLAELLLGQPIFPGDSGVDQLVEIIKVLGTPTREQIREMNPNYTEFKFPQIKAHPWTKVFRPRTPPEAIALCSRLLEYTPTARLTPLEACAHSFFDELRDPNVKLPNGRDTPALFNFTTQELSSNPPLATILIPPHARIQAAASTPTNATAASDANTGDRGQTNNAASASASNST

[41] = target: Dual specificity protein kinase CLK4 (Homo sapiens, UniProt Q9HAZ1)
Chain of Dual specificity protein kinase CLK4 (Q9HAZ1 whole entry): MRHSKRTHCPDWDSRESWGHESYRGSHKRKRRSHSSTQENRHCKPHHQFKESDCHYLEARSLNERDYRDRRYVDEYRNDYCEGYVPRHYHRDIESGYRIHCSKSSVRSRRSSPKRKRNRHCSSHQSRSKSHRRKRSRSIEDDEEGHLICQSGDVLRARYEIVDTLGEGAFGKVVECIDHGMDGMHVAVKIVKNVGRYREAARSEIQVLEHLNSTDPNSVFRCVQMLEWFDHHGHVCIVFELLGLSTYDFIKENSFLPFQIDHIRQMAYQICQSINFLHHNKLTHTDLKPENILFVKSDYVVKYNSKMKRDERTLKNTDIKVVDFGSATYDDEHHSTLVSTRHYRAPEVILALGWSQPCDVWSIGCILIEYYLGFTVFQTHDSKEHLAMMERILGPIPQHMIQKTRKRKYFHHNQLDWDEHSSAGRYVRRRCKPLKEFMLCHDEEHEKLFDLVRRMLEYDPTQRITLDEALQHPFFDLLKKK

[42] = target: Macrophage colony-stimulating factor 1 receptor (Homo sapiens, UniProt P07333);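 note: value comes from the Navigating the Kinome screening panel, CSF1R member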
Chain of Macrophage colony-stimulating factor 1 receptor (P07333 whole entry): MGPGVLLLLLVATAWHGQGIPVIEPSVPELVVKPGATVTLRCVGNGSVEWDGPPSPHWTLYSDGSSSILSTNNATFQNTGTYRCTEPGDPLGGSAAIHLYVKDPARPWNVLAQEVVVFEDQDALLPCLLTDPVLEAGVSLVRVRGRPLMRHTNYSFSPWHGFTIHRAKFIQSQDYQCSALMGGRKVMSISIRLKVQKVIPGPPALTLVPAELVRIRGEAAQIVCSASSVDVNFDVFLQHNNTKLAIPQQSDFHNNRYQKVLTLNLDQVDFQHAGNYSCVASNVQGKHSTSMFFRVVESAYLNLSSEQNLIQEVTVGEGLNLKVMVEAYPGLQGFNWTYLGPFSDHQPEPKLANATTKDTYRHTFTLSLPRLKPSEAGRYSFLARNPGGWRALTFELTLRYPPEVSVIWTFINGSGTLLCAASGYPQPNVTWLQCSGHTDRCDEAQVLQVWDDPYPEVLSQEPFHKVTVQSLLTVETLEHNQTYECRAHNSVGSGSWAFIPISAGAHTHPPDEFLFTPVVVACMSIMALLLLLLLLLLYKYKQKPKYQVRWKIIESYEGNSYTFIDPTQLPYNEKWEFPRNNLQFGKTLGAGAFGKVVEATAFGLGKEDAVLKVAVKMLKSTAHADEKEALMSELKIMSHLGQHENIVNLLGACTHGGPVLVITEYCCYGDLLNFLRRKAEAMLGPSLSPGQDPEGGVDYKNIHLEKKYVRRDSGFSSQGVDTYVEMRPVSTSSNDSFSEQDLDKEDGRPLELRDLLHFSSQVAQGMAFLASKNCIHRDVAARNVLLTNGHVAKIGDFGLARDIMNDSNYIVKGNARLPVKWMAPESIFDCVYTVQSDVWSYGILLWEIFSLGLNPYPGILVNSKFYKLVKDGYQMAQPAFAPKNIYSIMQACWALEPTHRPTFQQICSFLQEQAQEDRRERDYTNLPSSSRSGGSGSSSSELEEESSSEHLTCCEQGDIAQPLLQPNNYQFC

[43] = target: Tyrosine-protein kinase FRK (Homo sapiens, UniProt P42685);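 note: FRK tested as one member of a kinome panel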

Ki [1]: > 2 µM (inactive)
Ki [2]: 1 µM (active)
Ki [3]: 0.631 µM (active)
Ki [4]: 5.01 µM (active)
Ki [5]: 0.2 µM (active)
Ki [6]: 6.31 µM (active)
Ki [7]: 1 µM (active)
Ki [8]: 0.251 µM (active)
Ki [9]: > 2.51 µM (inactive)
Ki (SRSF protein kinase 1): 2 µM (active)
Ki [11]: 3.16 µM (active)
Ki (Aurora kinase A): 1.26 µM (active)
Ki [12]: 0.631 µM (active)
Ki [13]: > 5.01 µM (inactive)
Ki [14]: 3.16 µM (active)
Ki [15]: 1.26 µM (active)
Ki [16]: > 1.58 µM (inactive)
Ki [17]: 2.51 µM (active)
Ki [18]: > 1.58 µM (inactive)
Ki [19]: > 3.16 µM (inactive)
Ki [20]: 0.398 µM (active)
Ki [21]: > 2.51 µM (inactive)
Ki (Insulin receptor): > 5.01 µM (inactive)
Ki [22]: 0.794 µM (active)
Ki [23]: > 7.94 µM (inactive)
Ki [24]: > 2 µM (inactive)
Ki [25]: 0.631 µM (active)
Ki [26]: 1 µM (active)
Ki [27]: 3.16 µM (active)
Ki [28]: > 0.631 µM (inactive)
Ki (Misshapen-like kinase 1): 0.501 µM (active)
Ki [29]: 3.98 µM (active)
Ki [30]: 2 µM (active)
Ki [31]: 0.0398 µM (active)
Ki [32]: > 2.51 µM (inactive)
Ki [33]: > 1.58 µM (inactive)
Ki [34]: > 10 µM (inactive)
Ki [35]: 2.51 µM (active)
Ki [36]: > 5.01 µM (inactive)
Ki [37]: > 1.58 µM (inactive)
Ki [38]: > 10 µM (inactive)
Ki [39]: > 2 µM (inactive)
Ki [40]: 0.1 µM (active)
Ki [41]: 0.0251 µM (active)
Ki [42]: > 2.51 µM (inactive)
Ki [43]: > 2.51 µM (inactive)
SMILES: NC(=O)Cn1cc(-c2cc(-c3cc4ccccc4s3)c3[nH]ncc3c2)c2nc(N)ncc21
Ki [10]: 1 µM (active)
